Assay results as given in BindingDB's records for doi:10.1016/j.ejmech.2017.04.043 (University of Illinois At Chicago, 2017).

Biological target: T1, Gamma-aminobutyric acid receptor subunit alpha-1/beta-2/gamma-2 (Homo sapiens, UniProt P14867+P18507+P47870)
T1 sequence (P14867 whole entry): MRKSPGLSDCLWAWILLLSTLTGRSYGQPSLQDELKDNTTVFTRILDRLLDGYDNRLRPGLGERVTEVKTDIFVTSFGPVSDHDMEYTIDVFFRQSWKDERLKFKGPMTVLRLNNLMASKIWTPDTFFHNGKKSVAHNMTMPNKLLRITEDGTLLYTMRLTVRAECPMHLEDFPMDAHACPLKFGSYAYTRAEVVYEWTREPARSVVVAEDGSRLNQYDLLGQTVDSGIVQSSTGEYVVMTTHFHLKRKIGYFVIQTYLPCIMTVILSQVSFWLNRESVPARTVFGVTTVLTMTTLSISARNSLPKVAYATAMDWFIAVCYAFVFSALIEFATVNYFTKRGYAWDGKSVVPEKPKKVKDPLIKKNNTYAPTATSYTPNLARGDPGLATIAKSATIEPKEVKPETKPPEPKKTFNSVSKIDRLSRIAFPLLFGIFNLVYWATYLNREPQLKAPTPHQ
T1 sequence (P18507 whole entry): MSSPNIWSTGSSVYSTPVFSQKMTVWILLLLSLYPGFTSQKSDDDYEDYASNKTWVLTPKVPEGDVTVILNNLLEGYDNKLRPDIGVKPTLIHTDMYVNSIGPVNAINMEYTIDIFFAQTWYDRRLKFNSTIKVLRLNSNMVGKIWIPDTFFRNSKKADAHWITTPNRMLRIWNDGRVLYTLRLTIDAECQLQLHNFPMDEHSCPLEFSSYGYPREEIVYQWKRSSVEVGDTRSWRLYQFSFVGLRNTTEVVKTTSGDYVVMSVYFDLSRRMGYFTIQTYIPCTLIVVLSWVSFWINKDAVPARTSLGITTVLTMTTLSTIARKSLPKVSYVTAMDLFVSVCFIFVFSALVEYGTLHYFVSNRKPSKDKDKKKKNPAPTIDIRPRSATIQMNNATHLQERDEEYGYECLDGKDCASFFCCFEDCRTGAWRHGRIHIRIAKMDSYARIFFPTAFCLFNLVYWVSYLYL
T1 sequence (P47870 whole entry): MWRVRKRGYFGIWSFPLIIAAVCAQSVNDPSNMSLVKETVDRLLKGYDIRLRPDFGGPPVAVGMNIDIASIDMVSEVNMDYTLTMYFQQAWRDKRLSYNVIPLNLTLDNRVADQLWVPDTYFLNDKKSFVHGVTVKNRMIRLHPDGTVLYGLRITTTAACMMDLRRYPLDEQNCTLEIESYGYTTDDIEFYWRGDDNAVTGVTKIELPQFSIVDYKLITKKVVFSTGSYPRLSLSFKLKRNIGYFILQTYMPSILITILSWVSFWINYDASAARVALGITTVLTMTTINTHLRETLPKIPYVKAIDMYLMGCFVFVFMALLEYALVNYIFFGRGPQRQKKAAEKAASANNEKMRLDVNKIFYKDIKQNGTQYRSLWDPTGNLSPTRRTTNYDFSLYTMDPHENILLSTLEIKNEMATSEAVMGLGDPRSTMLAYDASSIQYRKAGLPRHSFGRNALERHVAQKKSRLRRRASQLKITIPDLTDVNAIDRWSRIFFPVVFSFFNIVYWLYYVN
Experiment: Positive allosteric modulation of human GABAA receptor alpha1beta2gamma2L expressed in Xenopus laevis oocytes assessed as potentiation of GABA-induced current by measuring GABA EC50 at 1.4 uM incubated for 15 to 25 secs by two-electrode voltage clamp assay (Rvb = […])

Structure (SMILES)	EC50
CC(=O)[C@H]1CC[C@H]2[C@@H]3CC[C@H]4C[C@H](O)CC[C@]4(C)[C@H]3C3(C[C@]12C)N=N3	1230 nM
CC(=O)[C@H]1CC[C@H]2[C@@H]3CC[C@H]4C[C@H](O)CC[C@]4(C)[C@H]3[C@@H](OC(=O)c3c(F)c(F)c(N=[N+]=[N-])c(F)c3F)C[C@]12C	70 nM
